Usually solubility stands for how much of the substance goes into solution per volume. As usually defined, the LD50 is the dose at which mortality reaches 50%. High values mean lower toxicity, low ones greater toxicity.

The values below come from patent publication US4978654A, “Composition and method for treatment of disseminated fungal infections in mammals” (priority 1987, dated 1990).

For data set [1] the following is noted: Poste, Biol. Cell 47; 19 (1983); cited from earlier work.
The conditions of data set [2]: intravenous administration; cited from earlier work.
The next data set relates to C. albicans 336. Description: Survival of infected mice, effect of lipid composition (FIG. 3). The class given is in vivo, Hale-Stoner mice. Conditions: 1.6 mg Amp B/kg. The protocol: Hale-Stoner mice, 6-8 weeks old and weighing 20-25 g, were obtained from The University of Texas Science Park (Bastrop, Tex.). Mice (10 per group) were injected intravenously with Candida albicans strain 336. This strain was grown for 18 hours on SDA plates at 37° C., washed and resuspended in saline. The mice were injected in the tail vein with 0.2 ml of the suspension containing 7×10^5 colony-forming units. […] The mice were injected on the second day of infection with a single dose of Amphotericin B.
Amp B was encapsulated in sterol-free and sterol-containing liposomes prepared by the method described in Example 2, above. Amp B concentration was determined at 405 nm as described in Example 2.
The effect of the lipid composition of the liposome on the survival of mice infected with C. albicans 336 was also evaluated. Each liposome case shown in FIG. 3 used 1.6 mg Amp B in 200 mg total lipid/kg.

The subject of a further data set is C. albicans. The data set can be described thus: MFC of Amp B in different phospholipid compositions (Table 3). The class given is cell-based, Candida albicans. The following applies: effect of lipid composition.
The test system of data set [3] is systemic fungal infection (fungal liver abscesses, consistent with Aspergillus spp.). The following applies: human, in vivo.
A further data set relates to Aspergillus terreus. The data set can be described thus: Treatment of cancer patient, Case 2. The class given is in vivo, human.
In another data set the test system is Candida neoformans. Description: In vitro MFC, YNB tube dilution (Table 1). The class given is cell-based, Candida neoformans (Cryptococcus neoformans in method). Conditions: 18 h. The protocol:
(§1) In vitro tests were conducted to determine the effect of free Amp B, Amp B encapsulated in nor-sterol-containing liposomes, (L-Amp B), Amp B encapsulated in cholesterol-containing liposomes (L-Amp B-C) and Amp B in ergosterol-containing liposomes (L-Amp B-E). Desoxycholate free Amphotericin B was obtained from E. R. Squibb & Sons, Inc. Amp B was encapsulated in non-sterol containing liposomes by the method described by Lopez-Berestein, et al., and summarized in Example 1, above. In order to obtain the different doses necessary, lipid concentration was held constant as the Amp B concentration was decreased. The concentration of Amp B within the liposome was determined by scanning in a UV absorption spectrophotometer (Gilford Instrument Laboratories, Oberlin, Ohio) at 405 nm after the Amp B was dissolved in methanol. Cholesterol or ergosterol, obtained from Avanti Polar Lipids (Birmingham, Ala.), was added to the chloroform DMPC:DMPG solution at a molar ratio of 7:3:4 (DMPC:DMPG:sterol).
(§2) In vitro activity of free Amp B, L-Amp B, L-Amp B-C and L-Amp B-E was tested on the following yeast species, all clinical isolates obtained from the Clinical Microbiology Laboratories at the University of Texas M.D. Anderson Hospital and Tumor Institute at Houston: Candida albicans, C. tropicalis, C. parapsilosis, Torulopsis glabrata and Cryptococcus neoformans. The YNB tube dilution method described by Shadomy, S., et al., "Susceptibility Testing with Antifungal Drugs." In Lennette, E. H., et al. (eds.), Manual of Clinical Microbiology, 3rd Ed. (Washington, D.C., American Society for Microbiology, 1980), pp. 647-653, hereby incorporated by reference, was used to perform all tests. All tubes were subcultured (10 μl ) onto Sabouraud-dextrose agar (SDA) (Scott/Randolph, Houston, Tex.) plates. Minimal fungicidal concentrations (MFC) were determined after incubation for 18 hours. The MFC was defined as the lowest concentration of Amp B that allowed no growth or growth of fewer than four colonies on the subculture plates.

A further data set relates to Candida tropicalis. The data set can be described thus: In vitro MFC, YNB tube dilution (Table 1). The data set is classed as cell-based. The following applies: 18 h. The method, then: as §1, §2
A further data set concerns Candida parapsilosis. The data set can be described thus: In vitro MFC, YNB tube dilution (Table 1). Conditions: 18 h. The data set is classed as cell-based. The method, then:
as §1, §2

The subject of a further data set is Candida albicans. Description: In vitro MFC, YNB tube dilution (Table 1). The class given is cell-based. The following applies: 18 h. The method, then: as §1, §2
The subject of data set [4] is yeast species, clinical isolates. Description: In vitro antifungal activity summarized over the 19 yeast strains. The data set is classed as cell-based. The method, then: as §1, with “Cholesterol or ergosterol, obtained from Avanti Polar Lipids (Birmingham, Ala.), was added to the chloroform DMPC:DMPG solution at a molar ratio of 7:3:4 (DMPC:DMPG:sterol).” left out
In vitro activity of free Amp B, L-Amp B, L-Amp B-C and L-Amp B-E was tested on the following yeast species, all clinical isolates obtained from the Clinical Microbiology Laboratories at the University of Texas M.D. Anderson Hospital and Tumor Institute at Houston: Candida albicans, C. tropicalis, C. parapsilosis, Torulopsis glabrata and Cryptococcus neoformans. […] Minimal fungicidal concentrations (MFC) were determined after incubation for 18 hours. […]

The nature of a further data set: physchem. The data set is classed as physicochemical. Conditions: organic solvent or mixture. The protocol: The lipids dimyristoyl phosphatidylcholine (DMPC) and dimyristoyl phosphatidylglycerol (DMPG) were obtained from Avanti Polar Lipids (Birmingham, Ala.), and desoxycholate-free Amp B was obtained from Dr. Dan Bonner (Squibb Pharmaceuticals, New Brunswick, N.J.). DMPC and DMPG were dissolved in chloroform in a molar ratio of 7:3 DMPC:DMPG. Amp B was dissolved in methanol at a concentration of 40 μg/ml and the Amp B solution added to the chloroform containing the DMPC and DMPG. This mixture was placed in a rotary evaporator (Rotavapor®; Brinkman Instruments, Westbury, N.Y.) until all organic solvents were removed. Normal saline was then added and the vesicles formed by gentle agitation. Using this method, to prepare enough liposome-encapsulated Amp B to make up a single dose for a 50 kg patient at a dose of 0.8 mg/kg body weight (as discussed in Example 4) requires the drying of at least 1 to 1.5 liters of the Amp B-methanol solution. Under controlled temperature and pressure conditions, approximately 3 to 4 hours are required to evaporate this volume of the Amp B-methanol solution.
Using this method, 640 μg of Amp B was dissolved in 1 ml of chloroform (containing 25 mg of the lipid mixture), a significant increase over the 40 μg/ml which can be dissolved in methanol as in the method described above. […]

For data set [5] the following is noted: cited from earlier work.
A further data set concerns Candida glabrata. Description: In vitro MFC, YNB tube dilution (Table 1). The data set is classed as cell-based, Candida glabrata (Torulopsis glabrata in method). The following applies: 18 h. The method, then:
as §1, §2

Data set [6] in a line: Toxicity / tolerated dose in mice. The following applies: mouse, in vivo. An excerpt:
The liposome-encapsulated Amp B may then be administered to a mammal infected with a fungal infection.

The structures appear in SMILES notation. ≈ marks a conversion by molar mass, not a printed value.

As for `CCCCCCCCCCCCCCCCCCN` [stearylamine], in data set [1], the “toxicity in mammalian systems” value is recorded as “toxic in mammalian systems in that they cause damage to the liver”.
Take `C[C@@H]1[C@H](O)[C@@H](C)/C=C/C=C/C=C/C=C/C=C/C=C/C=C/[C@H](O[C@@H]2O[C@H](C)[C@@H](O)[C@H](N)[C@@H]2O)C[C@@H]2O[C@](O)(C[C@@H](O)C[C@@H](O)[C@H](O)CC[C@@H](O)C[C@@H](O)CC(=O)O[C@H]1C)C[C@H](O)[C@H]2C(=O)O` [Amp B, Amphotericin B]: the toxic effects result in [2] was “renal disfunction, anemia, fever and hypotension”. Moreover, the “survival time over the controls” value with C. albicans 336 is “improved survival time over the controls”. Further, the “time to 50% survival” value in the data set on C. albicans 336 (control 5 days) was 10 days. Moreover, the MFC is 1.6 μg of Amp B per ML with C. albicans; 1.6 μg/Amp B/ml in the data set on Candida neoformans (strain 222); 0.4 μg/Amp B/ml against Candida neoformans (strain 595); 0.8 μg/Amp B/ml with Candida neoformans (strain 843); 1.6 μg/Amp B/ml in the data set with Candida neoformans (strain 881); 3 μg/Amp B/ml in the data set on Candida tropicalis (strain 251). The MFC against Candida tropicalis (strain 1324) is 1.6 μg/Amp B/ml; in the data set with Candida tropicalis (strain 1784), 3 μg/Amp B/ml; against Candida tropicalis (strain 2463) it was 1.6 μg/Amp B/ml; with Candida parapsilosis (strain 139) it was 3 μg/Amp B/ml; in the data set with Candida parapsilosis (strain 1341) it was above 25 μg/Amp B/ml; in the data set with Candida parapsilosis (strain 2300) it was 3 μg/Amp B/ml. In addition, the MFC is 0.8 μg/Amp B/ml against Candida albicans (strain 57); 1.6 μg/Amp B/ml in the data set with Candida albicans (strain 306); 0.4 μg/Amp B/ml against Candida albicans (strain 704); 0.8 μg/Amp B/ml in the data set on Candida albicans (strain 1091); 3 μg/Amp B/ml with Candida glabrata (strain 684); 1.6 μg/Amp B/ml against Candida glabrata (strain 1172). Moreover, the MFC in the data set on Candida glabrata (strain 1905) and with Candida glabrata (strain 2539) was 3 μg/Amp B/ml throughout. Moreover, the “side effects of non-liposomal Amp B therapy” value in [3] is “fever and chills were observed”; in the data set on Aspergillus terreus (total of 2.4 gm intravenously) it was “always associated with severe nausea, fever and chills”. For the same compound, the “response to non-liposomal Amp B therapy” value in the data set with Aspergillus terreus (intravenous) is “nasal lesions worsened in spite of Amp B therapy and new lung lesions appeared on chest x-ray examination”. The “response to Amp B by aerosolization” value in the data set on Aspergillus terreus (total of 1.4 gm by aerosolization) is “without improvement”. For the same compound, the “efficacy ranking in killing of the fungal strains” value in data set [4] is “Amp B being most effective, then L-Amp B, L-Amp B-C and, finally L-Amp B-E”. The solubility in “physchem” (chloroform with lipid mixture) amounted to 640 µg/mL (≈ 693 µM); in “physchem” (methanol), 40 µg/mL (≈ 43.3 µM). Besides, in data set [5], the “solubility in aqueous solution” value is “insoluble in aqueous solution”. The LD50 in data set [6] is around 1.2 mg/kg. Also, the MTD in [6] (read-out: maximum dose tolerated) amounted to 0.8 mg/kg.
For the compound `CCCCCCCCCCCCCCCCOP(=O)(O)OCCCCCCCCCCCCCCCC` [dicetyl phosphate], the “toxicity in mammalian systems” value in data set [1] is “toxic in mammalian systems in that they cause damage to the liver”.
